Converted amounts (≈) assume the structure as drawn. One block for each compound: values may come before it.
Experiments:
[1] = system: Staphylococcus aureus NARSA NRS22; test: microbe, parasite or virus in culture; assay type: cell-based; details: Staphylococcus aureus, reference compound, read-out: MIC (Concurrent)
[2] = system: Staphylococcus aureus NARSA VRS2; test: microbe, parasite or virus in culture; assay type: cell-based; details: Staphylococcus aureus, reference compound, read-out: MIC (Concurrent)
[3] = system: Staphylococcus aureus ATCC BAA-1556; test: microbe, parasite or virus in culture; assay type: cell-based; details: Staphylococcus aureus, ATCCBAA1556; reference compound; ATCC BAA-1556, Methicillin resistant; read-out: MIC (Concurrent)
[4] = system: Staphylococcus aureus ECL 2963646; test: microbe, parasite or virus in culture; assay type: cell-based; details: Staphylococcus aureus, ECL2963646, reference compound, read-out: MIC (Concurrent)
[5] = system: S. aureus (USA300 MRSA, BAA-1556); test: S. aureus dermal infection model in ICR mice, CFU/skin; assay type: in vivo, Staphylococcus aureus; details: 25 hours post inoculation; topical BID at 1 and 7 h post infection, 20 μL/mouse; 6027 1% in DMSO, fusidic acid 2%
Experimental: Inoculum preparation. The testing strain, S. aureus USA300 MRSA (BAA-1556), was obtained from the frozen working stock and thawed at room temperature. A 0.2 mL aliquot was inoculated into 20 mL Brain-Heart Infusion broth (BHI) and then incubated at 35-37° C. with shaking (120 rpm) for 8 h. Bacterial cells in the 20 mL culture were pelleted by centrifugation at 3,500×g for 15 minutes and then re-suspended in 10 mL cold PBS (>8.0×10^9 CFU/mL, OD620 1.8-2.0). The culture was then diluted in PBS to the target inoculum of 1.0×10^7 CFU/mL. The actual bacterial counts were determined by plating dilutions onto nutrient agar (NA) plates followed by 20-24 h incubation and colony counting. The actual CFU counts were 1.04×10^7 CFU/mL.
S. aureus (USA300 MRSA, BAA-1556) dermal infection model. Groups of 5 female ICR mice weighing 24±2 g were used. Animals were anesthetized with etomidate-lipuro emulsion (20 mg/10 mL) at 20 mg/kg by intravenous (IV) injection, and then the fur on the back was removed by an electric shaver, and the epidermal layer was disrupted with an abrasive paper. Mice were inoculated topically (TOP) on the wound area with S. aureus (MRSA, BAA-1556) suspension, 5 μL/mouse. The target inoculation density was 5×10^4 CFU/mouse and the actual inoculum count 5.2×10^4 CFU/mouse. Animals were housed separately after infection. Compound 6027 in DMSO at 1% was administered topically (TOP) twice (BID) at 1 and 7 h post infection. Reference control agent, fusidic acid cream at 20 mg/gram (2%), was administered TOP BID at 1 and 7 h post infection. One infected and untreated group was sacrificed at 1 h after infection for the initial (baseline) bacterial counts. The dose volumes were 20 μL/mouse for all dosing groups.
Animals were sacrificed at 1 or 25 h after inoculation with CO2 asphyxiation. The infected skin samples of the wound infection (around 2 cm 2 areas) were excised and were homogenized in 1 mL PBS (pH 7.4) with a polytron homogenizer. A 0.1 mL aliquot of each homogenate was used for serial 10-fold dilutions and plated onto NA plates for bacterial enumeration. The bacterial counts (CFU/skin) in skin tissues were calculated and the percentage decrease in counts compared to the corresponding vehicle control (placebo) was calculated with the following formula: Decrease (%)=[(CFU/skin of placebo —CFU/skin of treatment)/(CFU/skin of placebo)]×100%.

[6] = system: Staphylococcus aureus ATCC BAA-1556, USA300 MRSA; test: microbe, parasite or virus in culture; assay type: cell-based; details: Staphylococcus aureus
Experimental: Pre-formulated compound solution was diluted in 100% DMSO to prepare a 1.6 mg/mL working stock solution. […] The concentration range was 0.032 to 32 μg/mL.

[7] = system: Staphylococcus aureus ATCC 33591; test: microbe, parasite or virus in culture; assay type: cell-based; details: Staphylococcus aureus, ATCC33591, read-out: MIC (Concurrent) μg/mL
[8] = system: Clostridium difficile ATCC BAA-1805; test: microbe, parasite or virus in culture; details: Clostridioides difficile, ATCCBAA1805, read-out: MIC (Concurrent) μg/mL
Experimental: The antibacterial activity of inventive compounds was determined in duplicate in a Minimum Inhibitory Concentration (MIC) assay.
The antibacterial activity of 6027 acetate was measured using the in vitro broth microdilution assay under assay conditions described by the Clinical and Laboratory Standards Institute. […] Pre-formulated DMSO stock solution (26.67 mg/mL) was provided by sponsor. The 26.67 mg/mL stock solution was then diluted in DMSO to prepare a 6.4 mg/mL working stock solution. The 6.4 mg/mL working stock solution was diluted by 2-fold serial titrations in DMSO, for a total of 11 test concentrations. A 4 μl aliquot of each dilution was added to 196 of broth medium seeded with the organism suspension in wells of a 96 well plate (bacterial count: 2 −8×10^5 colony forming units/mL final). The final volume was 200 μl in each well and the final DMSO concentration was 2 percent. Test concentrations were 128 to 0.125 μg/mL.
Following incubation, the plates were visually examined, and wells were scored for growth or complete growth inhibition to define the minimum inhibitory concentration. […] Vehicle-control and Vancomycin or Linezolid, as depicted at Table 8, were used as blank and positive controls, respectively.

[9] = system: Streptococcus pyogenes ATCC 19615; test: MIC broth microdilution, method 1; assay type: cell-based; details: Streptococcus pyogenes, ATCC19615, reference compound, read-out: MIC (Concurrent)
[10] = system: Staphylococcus aureus NARSA NRS383; test: microbe, parasite or virus in culture; assay type: cell-based; details: Staphylococcus aureus, NRS383, read-out: MIC (Concurrent) μg/mL
[11] = system: Staphylococcus aureus NARSA NRS127; test: microbe, parasite or virus in culture; assay type: cell-based; details: Staphylococcus aureus, NRS127, read-out: MIC (Concurrent) μg/mL
[12] = system: Staphylococcus aureus NARSA NRS119; test: microbe, parasite or virus in culture; assay type: cell-based; details: Staphylococcus aureus, NRS119, read-out: MIC (Concurrent) μg/mL
[13] = system: Staphylococcus aureus ATCC BAA-1717; test: microbe, parasite or virus in culture; assay type: cell-based; details: Staphylococcus aureus, ATCCBAA1717, read-out: MIC (Concurrent) μg/mL
[14] = system: Streptococcus agalactiae ATCC 12386; test: MIC broth microdilution, method 1; assay type: cell-based; details: Streptococcus agalactiae, ATCC12386, reference compound, read-out: MIC (Concurrent)
[15] = system: Staphylococcus aureus ATCC 29213; test: MIC broth microdilution, method 1; assay type: cell-based; details: Staphylococcus aureus, ATCC29213, reference compound, read-out: MIC (Concurrent)
[16] = system: Staphylococcus aureus NARSA NRS382; test: microbe, parasite or virus in culture; assay type: cell-based; details: Staphylococcus aureus, NRS382, read-out: MIC (Concurrent) μg/mL

- MIC [1]: 2 µg/mL (≈ 5.93 µM)
- MIC [2]: 2 µg/mL (≈ 5.93 µM)
- MIC [3]: 2 µg/mL (≈ 5.93 µM)
- MIC [4]: 2 µg/mL (≈ 5.93 µM)
SMILES: CC(=O)NC[C@H]1CN(c2ccc(N3CCOCC3)c(F)c2)C(=O)O1 [Linezolid, reference compound]

SMILES: CC(=O)O[C@H]1C[C@@]2(C)[C@@H](C[C@@H](O)[C@H]3[C@@]4(C)CC[C@@H](O)[C@@H](C)[C@@H]4CC[C@@]32C)/C1=C(\CCC=C(C)C)C(=O)O [Fusidic acid, fusidic acid, reference compound]
- Decrease (%) in CFU/skin vs vehicle control [5]: 99%
- LogCFU/skin after 25 hours (Standard error of the mean − SEM) [5]: 4.82 (0.26) LogCFU/skin

SMILES: CN[C@H](CC(C)C)C(=O)N[C@H]1C(=O)N[C@@H](CC(N)=O)C(=O)N[C@H]2C(=O)N[C@H]3C(=O)N[C@H](C(=O)N[C@H](C(=O)O)c4cc(O)cc(O)c4-c4cc3ccc4O)[C@H](O)c3ccc(c(Cl)c3)Oc3cc2cc(c3O[C@@H]2O[C@H](CO)[C@@H](O)[C@H](O)[C@H]2O[C@H]2C[C@](C)(N)[C@H](O)[C@H](C)O2)Oc2ccc(cc2Cl)[C@H]1O [Vancomycin, reference compound]
- MIC [6]: 1 µg/mL (≈ 0.69 µM)
- MIC [7]: 1 µg/mL (≈ 0.69 µM)
- MIC [8]: 0.5 µg/mL (≈ 0.345 µM)
- MIC [9]: 0.25 µg/mL (≈ 0.173 µM)
- MIC [10]: 0.5 µg/mL (≈ 0.345 µM)
- MIC [11]: 1 µg/mL (≈ 0.69 µM)
- MIC [12]: 1 µg/mL (≈ 0.69 µM)
- MIC [13]: 0.5 µg/mL (≈ 0.345 µM)
- MIC [14]: 0.5 µg/mL (≈ 0.345 µM)
- MIC [15]: 0.5 µg/mL (≈ 0.345 µM)
- MIC [16]: 1 µg/mL (≈ 0.69 µM)
